Laboratory results: US11254640B2, “N-substituted indoles and other heterocycles for treating brain disorders” (The Regents of the University of California, priority 2019, dated 2022)

System: 5HT2A sensor
Test: 5HT2A sensor assay, agonist mode (sLight1.3s HEK293T stable line)
Assay type: cell-based
Settings: 100 nM compound; percent relative to 5-HT at 100 uM
How it was run: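 Agonist mode in HEK293T cells stably expressing the sLight1.3 5HT2A sensor, washed into HBSS; compounds at final 100 μM, 10 μM and 100 nM (0.1% DMSO), triplicate wells. Membrane fluorescence (ex 460, em 512-542 nm) imaged before and after addition; dFF=(Fsat−Fapo)/Fapo, expressed as percent activation (DMSO=0, 5HT=100).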

SMILES | 5HT2A Agonist mean @ 100 nM (%)
COc1cc2c(ccn2C[C@@H](C)N(C)C)cc1F [Example 70, (R)-1-(5-fluoro-6-methoxy-1H-indol-1-yl)-N,N-dimethylpropan-2-amine] | B (does not activate 5HT2A sensor assay in agonist mode)
Cc1cc2cc(F)ccc2n1C[C@@H](C)N(C)C [Example 73, (R)-1-(5-fluoro-2-methyl-1H-indol-1-yl)-N,N-dimethylpropan-2-amine] | B (does not activate 5HT2A sensor assay in agonist mode)
Cc1cn(C[C@@H](C)N(C)C)c2ccc(F)cc12 [Example 74, (R)-1-(5-fluoro-3-methyl-1H-indol-1-yl)-N,N-dimethylpropan-2-amine] | B (does not activate 5HT2A sensor assay in agonist mode)
CC[C@H](Cn1ccc2cc(OC)ccc21)N(C)C [Example 75, (R)-1-(5-methoxy-1H-indol-1-yl)-N,N-dimethylbutan-2-amine] | B (does not activate 5HT2A sensor assay in agonist mode)
CC[C@@H](Cn1ccc2cc(OC)ccc21)N(C)C [Example 76, (S)-1-(5-methoxy-1H-indol-1-yl)-N,N-dimethylbutan-2-amine] | B (does not activate 5HT2A sensor assay in agonist mode)

Same assay, conditions: 10 μM compound; percent relative to 5-HT at 100 uM

SMILES | 5HT2A Agonist mean @ 10 μM (%)
COc1cc2c(ccn2C[C@@H](C)N(C)C)cc1F [Example 70, (R)-1-(5-fluoro-6-methoxy-1H-indol-1-yl)-N,N-dimethylpropan-2-amine] | B (does not activate 5HT2A sensor assay in agonist mode)
Cc1cc2cc(F)ccc2n1C[C@@H](C)N(C)C [Example 73, (R)-1-(5-fluoro-2-methyl-1H-indol-1-yl)-N,N-dimethylpropan-2-amine] | B (does not activate 5HT2A sensor assay in agonist mode)
Cc1cn(C[C@@H](C)N(C)C)c2ccc(F)cc12 [Example 74, (R)-1-(5-fluoro-3-methyl-1H-indol-1-yl)-N,N-dimethylpropan-2-amine] | B (does not activate 5HT2A sensor assay in agonist mode)
CC[C@H](Cn1ccc2cc(OC)ccc21)N(C)C [Example 75, (R)-1-(5-methoxy-1H-indol-1-yl)-N,N-dimethylbutan-2-amine] | B (does not activate 5HT2A sensor assay in agonist mode)
CC[C@@H](Cn1ccc2cc(OC)ccc21)N(C)C [Example 76, (S)-1-(5-methoxy-1H-indol-1-yl)-N,N-dimethylbutan-2-amine] | B (does not activate 5HT2A sensor assay in agonist mode)

Same assay, conditions: 100 μM compound; percent relative to 5-HT at 100 uM

SMILES | 5HT2A Agonist mean @ 100 μM (%)
COc1cc2c(ccn2C[C@@H](C)N(C)C)cc1F [Example 70, (R)-1-(5-fluoro-6-methoxy-1H-indol-1-yl)-N,N-dimethylpropan-2-amine] | B (does not activate 5HT2A sensor assay in agonist mode)
Cc1cc2cc(F)ccc2n1C[C@@H](C)N(C)C [Example 73, (R)-1-(5-fluoro-2-methyl-1H-indol-1-yl)-N,N-dimethylpropan-2-amine] | A (activates 5HT2A sensor assay in agonist mode)
Cc1cn(C[C@@H](C)N(C)C)c2ccc(F)cc12 [Example 74, (R)-1-(5-fluoro-3-methyl-1H-indol-1-yl)-N,N-dimethylpropan-2-amine] | B (does not activate 5HT2A sensor assay in agonist mode)
CC[C@H](Cn1ccc2cc(OC)ccc21)N(C)C [Example 75, (R)-1-(5-methoxy-1H-indol-1-yl)-N,N-dimethylbutan-2-amine] | B (does not activate 5HT2A sensor assay in agonist mode)
CC[C@@H](Cn1ccc2cc(OC)ccc21)N(C)C [Example 76, (S)-1-(5-methoxy-1H-indol-1-yl)-N,N-dimethylbutan-2-amine] | B (does not activate 5HT2A sensor assay in agonist mode)

System: 5HT2A sensor
Test: 5HT2A sensor assay, antagonist mode (sLight1.3s HEK293T stable line)
Assay type: cell-based
Settings: 100 nM compound; relative to 5-HT at 100 nM
How it was run: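 Inactivation score is computed from membrane dFF as (dFF(compound+5HT)−dFF(5HT))/dFF(5HT), with HBSS-only fluorescence as Fapo. Final concentrations: 5-HT 100 nM added first, then compound at 100 nM, 10 μM or 100 μM in 0.1% DMSO. Triplicates; FITC imaging, 5 fields per well.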

SMILES | 5HT2A Antagonist mean @ 100 nM (%)
COc1cc2c(ccn2C[C@@H](C)N(C)C)cc1F [Example 70, (R)-1-(5-fluoro-6-methoxy-1H-indol-1-yl)-N,N-dimethylpropan-2-amine] | B (inhibits 5HT response by 75% to 100%)
Cc1cc2cc(F)ccc2n1C[C@@H](C)N(C)C [Example 73, (R)-1-(5-fluoro-2-methyl-1H-indol-1-yl)-N,N-dimethylpropan-2-amine] | B (inhibits 5HT response by 75% to 100%)
Cc1cn(C[C@@H](C)N(C)C)c2ccc(F)cc12 [Example 74, (R)-1-(5-fluoro-3-methyl-1H-indol-1-yl)-N,N-dimethylpropan-2-amine] | A (inhibits 5HT response by >100%)
CC[C@H](Cn1ccc2cc(OC)ccc21)N(C)C [Example 75, (R)-1-(5-methoxy-1H-indol-1-yl)-N,N-dimethylbutan-2-amine] | A (inhibits 5HT response by >100%)
CC[C@@H](Cn1ccc2cc(OC)ccc21)N(C)C [Example 76, (S)-1-(5-methoxy-1H-indol-1-yl)-N,N-dimethylbutan-2-amine] | A (inhibits 5HT response by >100%)

Same assay, conditions: 10 μM compound; relative to 5-HT at 100 nM

SMILES | 5HT2A Antagonist mean @ 10 μM (%)
COc1cc2c(ccn2C[C@@H](C)N(C)C)cc1F [Example 70, (R)-1-(5-fluoro-6-methoxy-1H-indol-1-yl)-N,N-dimethylpropan-2-amine] | B (inhibits 5HT response by 75% to 100%)
Cc1cc2cc(F)ccc2n1C[C@@H](C)N(C)C [Example 73, (R)-1-(5-fluoro-2-methyl-1H-indol-1-yl)-N,N-dimethylpropan-2-amine] | B (inhibits 5HT response by 75% to 100%)
Cc1cn(C[C@@H](C)N(C)C)c2ccc(F)cc12 [Example 74, (R)-1-(5-fluoro-3-methyl-1H-indol-1-yl)-N,N-dimethylpropan-2-amine] | A (inhibits 5HT response by >100%)
CC[C@H](Cn1ccc2cc(OC)ccc21)N(C)C [Example 75, (R)-1-(5-methoxy-1H-indol-1-yl)-N,N-dimethylbutan-2-amine] | A (inhibits 5HT response by >100%)
CC[C@@H](Cn1ccc2cc(OC)ccc21)N(C)C [Example 76, (S)-1-(5-methoxy-1H-indol-1-yl)-N,N-dimethylbutan-2-amine] | A (inhibits 5HT response by >100%)

Same assay, conditions: 100 μM compound; relative to 5-HT at 100 nM

SMILES | 5HT2A Antagonist mean @ 100 μM (%)
COc1cc2c(ccn2C[C@@H](C)N(C)C)cc1F [Example 70, (R)-1-(5-fluoro-6-methoxy-1H-indol-1-yl)-N,N-dimethylpropan-2-amine] | A (inhibits 5HT response by >100%)
Cc1cc2cc(F)ccc2n1C[C@@H](C)N(C)C [Example 73, (R)-1-(5-fluoro-2-methyl-1H-indol-1-yl)-N,N-dimethylpropan-2-amine] | A (inhibits 5HT response by >100%)
Cc1cn(C[C@@H](C)N(C)C)c2ccc(F)cc12 [Example 74, (R)-1-(5-fluoro-3-methyl-1H-indol-1-yl)-N,N-dimethylpropan-2-amine] | B (inhibits 5HT response by 75% to 100%)
CC[C@H](Cn1ccc2cc(OC)ccc21)N(C)C [Example 75, (R)-1-(5-methoxy-1H-indol-1-yl)-N,N-dimethylbutan-2-amine] | A (inhibits 5HT response by >100%)
CC[C@@H](Cn1ccc2cc(OC)ccc21)N(C)C [Example 76, (S)-1-(5-methoxy-1H-indol-1-yl)-N,N-dimethylbutan-2-amine] | A (inhibits 5HT response by >100%)

Target: T1, 5HT2A (Homo sapiens, UniProt P28223)
T1 construct: expressed in transfected cells
T1 sequence (P28223 whole entry): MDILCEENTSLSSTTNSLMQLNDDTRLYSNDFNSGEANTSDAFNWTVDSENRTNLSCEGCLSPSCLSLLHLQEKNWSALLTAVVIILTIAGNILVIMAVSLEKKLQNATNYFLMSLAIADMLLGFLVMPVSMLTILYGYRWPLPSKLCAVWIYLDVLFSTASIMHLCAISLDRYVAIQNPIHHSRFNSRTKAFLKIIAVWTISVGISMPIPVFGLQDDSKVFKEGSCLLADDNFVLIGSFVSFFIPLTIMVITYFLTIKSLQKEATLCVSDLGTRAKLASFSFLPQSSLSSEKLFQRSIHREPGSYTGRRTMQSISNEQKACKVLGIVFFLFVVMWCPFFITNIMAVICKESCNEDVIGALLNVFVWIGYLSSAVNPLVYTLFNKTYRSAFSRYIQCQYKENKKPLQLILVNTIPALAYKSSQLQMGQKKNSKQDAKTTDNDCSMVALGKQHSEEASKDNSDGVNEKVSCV
Test: Calcium flux assay (Calcium secondary messenger pathway)
Assay type: cell-based
Settings: agonist mode
Source text: Calcium Flux Assay. Calcium Secondary Messenger Pathway. The Calcium No Wash^PLUS assay monitors the activation of a GPCR (e.g., 5HT2A) via Gq secondary messenger signaling in a live cell, non-imaging assay format. Calcium mobilization in PathHunter® cell lines or other cell lines stably expressing Gq-coupled GPCRs (e.g., 5HT2A) is monitored using a calcium-sensitive dye that is loaded into cells. GPCR (e.g., 5HT2A) activation by a compound results in the release of calcium from intracellular stores and an increase in dye fluorescence that is measured in real-time. In some embodiments, the ability of a compound of the present invention to modulate 5-HT2A function is determined using a calcium flux assay. In some embodiments, a compound of the present invention activates a calcium flux assay.
Calcium Secondary Messenger Pathway. Cell lines were expanded from freezer stocks according to standard procedures. Cells were seeded in a total volume of 20 μL into black-walled, clear-bottom, Poly-D-lysine coated 384-well microplates and incubated at 37° C. for the appropriate time prior to testing. Assays were performed in 1× Dye Loading Buffer consisting of 1× Dye, 1× Additive A and 2.5 mM Probenecid in HBSS/20 mM Hepes. Probenicid was prepared fresh. Cells were loaded with dye prior to testing. Media was aspirated from cells and replaced with 20 μL Dye Loading Buffer. Cells were incubated for 30-60 minutes at 37° C.
For agonist determination, cells were incubated with sample to induce response. After dye loading, cells were removed from the incubator and 10 μL HBSS/20 mM Hepes was added. 3× vehicle was included in the buffer when performing agonist dose curves to define the EC80 for subsequent antagonist assays. Cells were incubated for 30 minutes at room temperature in the dark to equilibrate plate temperature. Intermediate dilution of sample stocks was performed to generate 4× sample in assay buffer. Compound agonist activity was measured on a FLIPR Tetra (MDS). Calcium mobilization was monitored for 2 minutes and 10 μL 4× sample in HBSS/20 mM Hepes was added to the cells 5 seconds into the assay.
Compound activity was analyzed using CBIS data analysis suite (ChemInnovation, CA). For agonist mode assays, percentage activity is calculated using the following formula: % Activity=100%×(mean RFU of test sample−mean RFU of vehicle control)/(mean MAX RFU control ligand−mean RFU of vehicle control).

SMILES | EC50 [µM]
COc1cc2c(ccn2C[C@@H](C)N(C)C)cc1F [Example 70, (R)-1-(5-fluoro-6-methoxy-1H-indol-1-yl)-N,N-dimethylpropan-2-amine] | < 10
Cc1cc2cc(F)ccc2n1C[C@@H](C)N(C)C [Example 73, (R)-1-(5-fluoro-2-methyl-1H-indol-1-yl)-N,N-dimethylpropan-2-amine] | > 10
Cc1cn(C[C@@H](C)N(C)C)c2ccc(F)cc12 [Example 74, (R)-1-(5-fluoro-3-methyl-1H-indol-1-yl)-N,N-dimethylpropan-2-amine] | > 10
CC[C@H](Cn1ccc2cc(OC)ccc21)N(C)C [Example 75, (R)-1-(5-methoxy-1H-indol-1-yl)-N,N-dimethylbutan-2-amine] | > 10
CC[C@@H](Cn1ccc2cc(OC)ccc21)N(C)C [Example 76, (S)-1-(5-methoxy-1H-indol-1-yl)-N,N-dimethylbutan-2-amine] | > 10

System: rat cortical neurons
Test: Neurite outgrowth assay
Assay type: cell-based
Settings: Cortical neurone, 1 hour treatment at DIV 4, analysed DIV 7, fold vs DMSO control, read-out: Neurite Average Length @ 10 μM
Source text: Neurite outgrowth assay. Changes in the pattern of neurite outgrowth have been implicated in neurodegenerative disorders as well as traumatic injuries. The discovery of new compounds that can positively affect neuritogenesis are important for developing new therapeutics for neurological diseases. Measurement of neurite outgrowth of rat cortical neurons using an automated image-based assay was used to determine the neuroplastic effects of the compounds of the present invention. In some embodiments, a compound of the present invention increases the pattern of neurite outgrowth. In some embodiments, a compound of the present invention increases neurite average length compared to a control. In some embodiments, a compound of the present invention increases neurite branch points compared to a control. In some embodiments, a compound of the present invention increases neurite average length and neurite branch points compared to a control.
Neurite Outgrowth Assay. Rat cortical neurons (20,000 cells/well) were freshly isolated from embryonic day 18 rats and cultured in Neurobasal Medium (+B27). The cultured cells were plated in 96 well-plates (avoiding external wells). At DIV 4, the neurons were treated with compound or control (10 μM) for 1 hour followed by complete washout of the compound. At DIV 7, the neurons were analyzed. The experiments were performed in triplicate. Neurite outgrowth was measured analyzing the following parameters: Number of Cell Bodies, total neurite length (pixels), Root Count, Segments, Extremities Count and node points. Changes in the pattern of neurite outgrowth of the neurons were analyzed by immunocytochemistry against β-III-tubulin. Pictures were acquired by the CellInsight CX7 from Thermo Fisher and analyzed using its software. Results generated in the equipment were maximum neurite length, extremity count, root count, dendrite branch points, and total neurite length. The results were compared to DMSO control, representing the fold-change in neuronal outgrowth.

SMILES | fold induction at 10 µM
COc1cc2c(ccn2C[C@@H](C)N(C)C)cc1F [Example 70, (R)-1-(5-fluoro-6-methoxy-1H-indol-1-yl)-N,N-dimethylpropan-2-amine] | 1.5 to 3
Cc1cc2cc(F)ccc2n1C[C@@H](C)N(C)C [Example 73, (R)-1-(5-fluoro-2-methyl-1H-indol-1-yl)-N,N-dimethylpropan-2-amine] | 1.5 to 3
Cc1cn(C[C@@H](C)N(C)C)c2ccc(F)cc12 [Example 74, (R)-1-(5-fluoro-3-methyl-1H-indol-1-yl)-N,N-dimethylpropan-2-amine] | 1.5 to 3
CC[C@H](Cn1ccc2cc(OC)ccc21)N(C)C [Example 75, (R)-1-(5-methoxy-1H-indol-1-yl)-N,N-dimethylbutan-2-amine] | < 1.5
CC[C@@H](Cn1ccc2cc(OC)ccc21)N(C)C [Example 76, (S)-1-(5-methoxy-1H-indol-1-yl)-N,N-dimethylbutan-2-amine] | 1.5 to 3

Same assay, conditions: Cortical neurone, 1 hour treatment at DIV 4, analysed DIV 7, fold vs DMSO control, read-out: Neurite Branch Points: @ 10 μM

SMILES | fold induction at 10 µM
COc1cc2c(ccn2C[C@@H](C)N(C)C)cc1F [Example 70, (R)-1-(5-fluoro-6-methoxy-1H-indol-1-yl)-N,N-dimethylpropan-2-amine] | 1.5 to 3
Cc1cc2cc(F)ccc2n1C[C@@H](C)N(C)C [Example 73, (R)-1-(5-fluoro-2-methyl-1H-indol-1-yl)-N,N-dimethylpropan-2-amine] | 1.5 to 3
Cc1cn(C[C@@H](C)N(C)C)c2ccc(F)cc12 [Example 74, (R)-1-(5-fluoro-3-methyl-1H-indol-1-yl)-N,N-dimethylpropan-2-amine] | 1.5 to 3
CC[C@H](Cn1ccc2cc(OC)ccc21)N(C)C [Example 75, (R)-1-(5-methoxy-1H-indol-1-yl)-N,N-dimethylbutan-2-amine] | < 1.5
CC[C@@H](Cn1ccc2cc(OC)ccc21)N(C)C [Example 76, (S)-1-(5-methoxy-1H-indol-1-yl)-N,N-dimethylbutan-2-amine] | 1.5 to 3
